Tests used:
[1] = system: retrovirus expressing GFP; details: 293T cells, tested dosages, two days after infection
Source text: 293T human embryonic kidney cells were infected with the GFP-retrovirus. […] Two days later, the cells were photographed with a digital camera mounted on a microscope. […] Data represent the mean±standard deviation of three independent experiments.
Two days later, the number of infected cells from two separate experiments was counted.

[2] = system: VSV-G-enveloped HIV-Luciferase viruses (HIV-1)
[3] = system: H1299 human lung cancer cells; assay: Cancer cell growth, viable cell count by trypan blue exclusion; type: cell-based; details: H1299, 5 μM
Source text: (§1) The tested cells include LNCAP human prostate cancer cells, MDA-MB-468 human breast cancer cells, H1299 human lung cancer cells, AGS human gastric cancer cells, HepG2 human liver cancer cells, PANC-1 human pancreatic carcinoma cells, Jurkat human acute T-cell leukemia cells, A431 human epidermoid carcinoma cells, U251 human glioma cells, NBT-II human bladder cancer cells, and Hela human cervical cancer cells.

[4] = system: Jurkat human acute T-cell leukemia cells; assay: as above; type: cell-based; details: 5 μM
Source text: as §1

[5] = system: A431 human epidermoid carcinoma cells; assay: as above; type: cell-based; details: A431, 5 μM; for % inhibition of cell growth: day 6, vs untreated cells; for cell apoptosis: day 6
Source text: as §1

[6] = system: Hela human cervical cancer cells; assay: as above; type: cell-based; details: for % inhibition of cell growth / inhibition at 5 µM: day 6, vs untreated cells; for inhibition at 5 µM: Homo sapiens, 144 h
Source text: as §1

[7] = system: MDA-MB-468 human breast cancer cells; assay: as above; type: cell-based; details: MDA-MB-468, 5 μM
Source text: as §1

[8] = system: AGS human gastric cancer cells; assay: as above; type: cell-based; details: for inhibition at 5 µM: Homo sapiens, 144 h
Source text: as §1

[9] = system: PANC-1 human pancreatic carcinoma cells; assay: as above; type: cell-based; details: PANC-1, 5 μM
Source text: as §1

[10] = system: LNCAP human prostate cancer cells; assay: as above; type: cell-based
Source text: as §1

U251 human glioma cells = assay: as above; type: cell-based; details: U251, 5 μM; for cell apoptosis: day 6
Source text: as §1

[11] = system: HepG2 human liver cancer cells; assay: as above; type: cell-based; details: HepG2, 5 μM
Source text: as §1

[12] = system: NBT-II human bladder cancer cells; assay: as above; type: cell-based; details: for inhibition at 5 µM: Homo sapiens, 144 h
Source text: as §1

cells listed in Table 1 = assay: Cancer cell growth, panel of cells listed in Table 1; type: cell-based, human; details: 5 μM, day 6, vs untreated cells
Source text: as §1

HT29 cells = assay: Cancer cell growth, viable cell count by trypan blue exclusion; type: cell-based; details: HT29, 5 μM
[13] = day 6, about 4×10^4 cells at start
[14] = 5 μM, day 6, about 4×10^4 cells at start
[15] = 5 μM, day 6, vs untreated cells
[16] = Homo sapiens, 144 h, day 6, vs untreated cells

C=CCOc1ccc(CCNc2ncnc3ccc(N)cc23)cc1
cell deaths observed [1]: no obvious cell deaths
cell deaths observed [2]: no obvious cell deaths
inhibition of HIV-1 viral infection and replication (HIV-1-induced Luciferase activity) [2]: showed inhibition

Nc1ccc2ncnc(NCCc3ccc(OCc4ccccn4)cc3)c2c1
cell deaths observed [1]: no obvious cell deaths
cell deaths observed [2]: no obvious cell deaths
inhibition of HIV-1 viral infection and replication (HIV-1-induced Luciferase activity) [2]: showed inhibition

Nc1ccc2ncnc(NCCc3ccc(OCc4ccccc4)cc3)c2c1
cell deaths observed [1]: no obvious cell deaths
cell deaths observed [2]: no obvious cell deaths
inhibition of HIV-1 viral infection and replication (HIV-1-induced Luciferase activity) [2]: showed inhibition

Nc1ccc2ncnc(NCCc3ccc(Oc4ccccc4)cc3)c2c1
cell deaths observed [1]: no obvious cell deaths
cell deaths observed [2]: no obvious cell deaths
inhibition of HIV-1 viral infection and replication (HIV-1-induced Luciferase activity) [2]: showed inhibition
Treated (cell number × 10^5) [3, 13]: 3 ± 0.2 × 10^5
% inhibition of cell growth ([3]; day 6, vs untreated cells): 52%
Treated (cell number × 10^5) [4, 13]: 6.3 ± 0.4 × 10^5
% inhibition of cell growth ([4]; day 6, vs untreated cells): 28%
Treated (cell number × 10^5) [5, 13]: 3.2 ± 0.2 × 10^5
% inhibition of cell growth [5]: 59%
Treated (cell number × 10^5) [6, 14]: 1.1 ± 0.1 × 10^5
% inhibition of cell growth ([6]; 5 μM): 70%
Treated (cell number × 10^5) [7, 13]: 5.4 ± 0.1 × 10^5
% inhibition of cell growth ([7]; day 6, vs untreated cells): 10%
Treated (cell number × 10^5) [8, 14]: 2.1 ± 0.1 × 10^5
% inhibition of cell growth [8, 15]: 10%
Treated (cell number × 10^5) [9, 13]: 1.9 ± 0.1 × 10^5
% inhibition of cell growth ([9]; day 6, vs untreated cells): 14%
Treated (cell number × 10^5) [10, 14]: 0.7 ± 0.2 × 10^5
% inhibition of cell growth [10, 15]: 90%
Treated (cell number × 10^5) (U251 human glioma cells; [13]): 7.2 ± 0.2 × 10^5
% inhibition of cell growth (U251 human glioma cells; day 6, vs untreated cells): 20%
Treated (cell number × 10^5) [11, 13]: 0.8 ± 0.1 × 10^5
% inhibition of cell growth ([11]; day 6, vs untreated cells): 80%
Treated (cell number × 10^5) [12, 14]: 2.7 ± 0.1 × 10^5
% inhibition of cell growth [12, 15]: 10%
inhibition of cell growth, range over the cancer cells of Table 1 (cells listed in Table 1): 10-90%
Treated (cell number × 10^5) (HT29 cells; [13]): 1.9 ± 0.1 × 10^5
% inhibition of cell growth (HT29 cells; day 6, vs untreated cells): 50%

COc1cc(O)c2c(c1)oc(=O)c1c3cc(O)c(O)cc3oc21 [7-Methoxy-5,11,12-trihydroxy-coumestan]
% inhibition of cell growth ([3]; day 6, vs untreated cells): ~31%
% inhibition of cell growth [5]: about 51%
% inhibition of cell growth ([6]; 5 μM): ~29%
% inhibition of cell growth ([7]; day 6, vs untreated cells): ~10%
% inhibition of cell growth ([11]; day 6, vs untreated cells): ~25%

Cc1ccc(S(=O)(=O)/C=C/C#N)cc1 [BAY 11-7082, (E)3-[(4-Methylphenyl)sulfonyl]-2-propenenitrile, reference compound]
cell apoptosis ([3]; day 6): completely cell apoptosis
cell apoptosis [5]: completely cell apoptosis
inhibition at 5 µM [6]: 9 to 12%
inhibition at 5 µM [7, 16]: 9 to 12%
inhibition at 5 µM ([8]; day 6, vs untreated cells): ~90%
cell apoptosis ([9]; day 6): completely cell apoptosis
cell apoptosis ([10]; 5 μM, day 6): completely cell apoptosis
cell apoptosis (U251 human glioma cells): completely cell apoptosis
cell apoptosis ([11]; day 6): completely cell apoptosis
inhibition at 5 µM ([12]; day 6, vs untreated cells): 9 to 12%

O=C(/C=C/c1ccc(O)c(O)c1)OCCc1ccccc1 [cape, reference compound]
cell deaths observed [2]: no obvious cell deaths
inhibition of HIV-1 viral infection and replication (HIV-1-induced Luciferase activity) [2]: showed inhibition

CC1=C(O)C(=O)C=C2C1=CC=C1[C@@]2(C)CC[C@@]2(C)[C@@H]3C[C@](C)(C(=O)O)CC[C@]3(C)CC[C@]12C [celastrol, 3-hydroxy-24-nor-2-oxo-1(10),3,5,7-friedelatetraen-29-oic Acid, reference compound]
cell deaths observed [2]: no obvious cell deaths
cell apoptosis ([4]; day 6): about 90%

COc1ccc([C@@]23Oc4cc(OC)cc(OC)c4[C@]2(O)[C@H](O)[C@H](C(=O)N(C)C)[C@H]3c2ccccc2)cc1 [rocaglamide, reference compound]
cell deaths observed [2]: no obvious cell deaths
inhibition of HIV-1 viral infection and replication (HIV-1-induced Luciferase activity) [2]: showed inhibition
inhibition at 5 µM ([3]; Homo sapiens, NCI-H1299, 144 h, day 6, vs untreated cells): ~80%
cell apoptosis [5]: completely cell apoptosis
inhibition at 5 µM [6]: 9 to 40%
cell apoptosis ([7]; day 6): completely cell apoptosis
inhibition at 5 µM ([8]; day 6, vs untreated cells): ~50%
inhibition at 5 µM [9, 16]: 9 to 40%
inhibition at 5 µM [10, 16]: ~70%
cell apoptosis (U251 human glioma cells): completely cell apoptosis
inhibition at 5 µM [11, 16]: 9 to 40%
inhibition at 5 µM ([12]; day 6, vs untreated cells): 9 to 40%

From patent US20090082371A1, “Treatment of Viral Disease and Cancer With Nf-kappaB Inhibitors” (priority 2005, published 2009)
